Measured values: patent publication US7629367B2, “N-(2-benzyl)-2-phenylbutanamides as androgen receptor modulators” (Merck & Co., Inc., priority 2004, dated 2009)

Target: T1, androgen receptor (Homo sapiens, UniProt P10275)
T1 sequence (P10275 1-920): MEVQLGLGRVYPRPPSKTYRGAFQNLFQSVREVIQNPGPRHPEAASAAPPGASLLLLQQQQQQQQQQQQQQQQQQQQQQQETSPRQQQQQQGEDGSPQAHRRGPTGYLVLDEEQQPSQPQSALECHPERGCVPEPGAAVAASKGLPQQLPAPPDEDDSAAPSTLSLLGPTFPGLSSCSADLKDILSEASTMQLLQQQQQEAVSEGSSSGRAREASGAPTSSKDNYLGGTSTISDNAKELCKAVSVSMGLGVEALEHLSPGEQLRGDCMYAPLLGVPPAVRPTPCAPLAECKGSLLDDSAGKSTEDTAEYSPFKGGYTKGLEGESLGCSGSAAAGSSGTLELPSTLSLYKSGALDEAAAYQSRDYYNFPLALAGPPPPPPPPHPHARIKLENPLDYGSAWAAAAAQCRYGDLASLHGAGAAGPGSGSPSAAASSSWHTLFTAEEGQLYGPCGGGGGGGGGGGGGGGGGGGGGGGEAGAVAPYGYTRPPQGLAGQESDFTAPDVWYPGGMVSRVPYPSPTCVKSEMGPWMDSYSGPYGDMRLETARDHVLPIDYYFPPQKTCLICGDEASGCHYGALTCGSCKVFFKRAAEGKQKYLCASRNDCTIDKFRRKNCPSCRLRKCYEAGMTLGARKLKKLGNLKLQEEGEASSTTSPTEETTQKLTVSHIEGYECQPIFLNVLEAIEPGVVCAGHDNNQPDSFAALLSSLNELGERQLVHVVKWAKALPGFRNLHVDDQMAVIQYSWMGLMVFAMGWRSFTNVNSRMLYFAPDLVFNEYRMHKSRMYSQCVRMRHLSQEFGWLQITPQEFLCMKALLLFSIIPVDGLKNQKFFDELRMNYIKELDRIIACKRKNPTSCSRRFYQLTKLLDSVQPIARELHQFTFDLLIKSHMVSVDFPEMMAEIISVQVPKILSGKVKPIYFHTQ
Assay: biochemical assays (not further specified)
Details: compound coupled from the second-peak acid (RT=21 min)

Structure (SMILES): Cc1cnc(F)c(CNC(=O)C(O)(c2ccccc2)C(F)(F)C(F)(F)F)c1 (single isomer, unassigned) [Example 3-2, (2R or 2S)-3,3,4,4,4-pentafluoro-N-[(2-fluoro-5-methylpyridin-3-yl)methyl]-2-hydroxy-2-phenylbutanamide]
- activity in the biochemical assays: active
